Patent US20220169632A1, “METHODS AND MATERIALS FOR INCREASING OR MAINTAINING NICOTINAMIDE MONONUCLEOTIDE ADENYLYL TRANSFERASE-2 (NMNAT2) POLYPEPTIDE LEVELS” (University of Pittsburgh - Of the Commonwealth System of …, priority 2019, published 2022)

tested on: NMNAT2; assay: NMNAT2-Hibit nano-luciferase activity in stably transfected U87MG cells, various concentrations, 24 hours; format: cell-based; details: U87MG cells stably transfected with NMNAT2-Hibit luc plasmid
Method: Selected compounds were tested in vitro. U87MG cells were stably transfected with NMNAT2-Hibit luc plasmid. Cells were treated with a test compound at various concentrations for 24 hours. Cells were then collected and assayed for nano-luciferase activity.

| SMILES | E: compound efficacy for NMNAT2 activation (concentration giving >25% increase in NMNAT2 luciferase activity) |
| --- | --- |
| Cc1ccc(C)c(Cn2c3c(c4ccccc42)CN(C(=O)Nc2cccc(C)c2C)CC3)c1 [BC20255] | + (“+” >25% increase in NMNAT2 luciferase activity at >25 μM.) |
| O=C(NCc1ccccc1F)C1CCc2c(c3ccccc3n2Cc2cccc(F)c2)C1 (centres unmarked) [BC20256] | + (“+” >25% increase in NMNAT2 luciferase activity at >25 μM.) |
| O=C(c1ccco1)N1CCN(C(=O)C2CCc3c(c4ccccc4n3Cc3cccc(F)c3)C2)CC1 (centres unmarked) [BC20257] | + (“+” >25% increase in NMNAT2 luciferase activity at >25 μM.) |
| O=C(NCc1cccnc1)C1CCc2c(c3ccccc3n2Cc2cccc(F)c2)C1 (centres unmarked) [BC20258] | ++ (“++” >25% increase in NMNAT2 luciferase activity at >1 μM ≤25 μM.) |
| CCCCN(CC)Cc1ccc(CNC(=O)C2CCc3c(c4ccccc4n3Cc3cccc(F)c3)C2)o1 (centres unmarked) [BC20259] | +++ (“+++” >25% increase in NMNAT2 luciferase activity at ≤1 μM.) |
| O=C(C1CCc2c(c3ccccc3n2Cc2cccc(F)c2)C1)N1CCc2occc2C1 (centres unmarked) [BC20260] | ++ (“++” >25% increase in NMNAT2 luciferase activity at >1 μM ≤25 μM.) |
| Cc1cccc(CN2CCc3cn(Cc4cc(C)ccc4C)c4cccc(c34)C2=O)c1 [BC20261] | + (“+” >25% increase in NMNAT2 luciferase activity at >25 μM.) |
| O=C(Cn1c2c(c3ccccc31)CC(C(=O)NCCc1ccccc1)CC2)NCc1ccco1 (centres unmarked) [BC20262] | ++ (“++” >25% increase in NMNAT2 luciferase activity at >1 μM ≤25 μM.) |
| Cc1c(C)n(Cc2ccccc2F)c2ccc(C(=O)N(CCCN3CCOCC3)Cc3ccco3)cc12 [BC20263] | ++ (“++” >25% increase in NMNAT2 luciferase activity at >1 μM ≤25 μM.) |
| Cc1c(C)n(Cc2cccc(F)c2)c2ccc(C(=O)N(CCCN3CCOCC3)Cc3ccco3)cc12 [BC20264] | ++ (“++” >25% increase in NMNAT2 luciferase activity at >1 μM ≤25 μM.) |
| Cc1c(C)n(Cc2cccc(F)c2)c2ccc(C(=O)NCc3cccnc3)cc12 [BC20265] | ++ (“++” >25% increase in NMNAT2 luciferase activity at >1 μM ≤25 μM.) |
| CCCCN(CC)Cc1ccc(CNC(=O)c2ccc3c(c2)c(C)c(C)n3Cc2ccccc2C)o1 [BC20266] | ++ (“++” >25% increase in NMNAT2 luciferase activity at >1 μM ≤25 μM.) |
| Cc1ccc(Cn2cc(C3CCN(Cc4ccncc4)C(=O)C3)c3ccccc32)cc1 (centres unmarked) [BC20267] | ++ (“++” >25% increase in NMNAT2 luciferase activity at >1 μM ≤25 μM.) |
| Cc1ccc(Cn2cc(C3CCN(CCc4cccc(C)c4)C(=O)C3)c3ccccc32)cc1 (centres unmarked) [BC20268] | + (“+” >25% increase in NMNAT2 luciferase activity at >25 μM.) |
| Cc1ccc(C)c(Cn2cc3c4c(cccc42)C(=O)N(Cc2ccccc2F)CC3)c1 [BC20269] | + (“+” >25% increase in NMNAT2 luciferase activity at >25 μM.) |
| Cc1ccc(C)c(Cn2cc3c4c(cccc42)C(=O)N(Cc2cccc(F)c2)CC3)c1 [BC20270] | + (“+” >25% increase in NMNAT2 luciferase activity at >25 μM.) |
| Cc1ccc(C)c(Cn2cc3c4c(cccc42)C(=O)N(Cc2ccccc2C)CC3)c1 [BC20271] | + (“+” >25% increase in NMNAT2 luciferase activity at >25 μM.) |
| COc1ccc(CCN2CCc3cn(Cc4cc(C)ccc4C)c4cccc(c34)C2=O)cc1 [BC20272] | + (“+” >25% increase in NMNAT2 luciferase activity at >25 μM.) |
| Cc1ccc(C)c(Cn2cc3c4c(cccc42)C(=O)N(CCc2ccccc2C)CC3)c1 [BC20273] | + (“+” >25% increase in NMNAT2 luciferase activity at >25 μM.) |
| O=C1c2cccc3c2c(cn3Cc2cccc(F)c2)CCN1Cc1ccccc1F [BC20274] | + (“+” >25% increase in NMNAT2 luciferase activity at >25 μM.) |
| O=C1c2cccc3c2c(cn3Cc2cccc(F)c2)CCN1Cc1cccc(F)c1 [BC20275] | + (“+” >25% increase in NMNAT2 luciferase activity at >25 μM.) |
| Cc1cccc(CN2CCc3cn(Cc4cccc(F)c4)c4cccc(c34)C2=O)c1 [BC20276] | + (“+” >25% increase in NMNAT2 luciferase activity at >25 μM.) |
| O=C1c2cccc3c2c(cn3Cc2cccc(F)c2)CCN1Cc1ccncc1 [BC20277] | + (“+” >25% increase in NMNAT2 luciferase activity at >25 μM.) |
| COc1ccc(CCN2CCc3cn(Cc4cccc(F)c4)c4cccc(c34)C2=O)cc1 [BC20278] | + (“+” >25% increase in NMNAT2 luciferase activity at >25 μM.) |

| SMILES | E: compound efficacy for NMNAT2 activation (concentration giving >25% increase in NMNAT2 luciferase activity) |
| --- | --- |
| Cc1ccc(CNC(=O)C2CCc3c(c4ccccc4n3Cc3ccncc3)C2)o1 (centres unmarked) [BC20279] | + (“+” >25% increase in NMNAT2 luciferase activity at >25 μM.) |
| Cc1ccccc1CNC(=O)C1CCc2c(c3ccccc3n2Cc2ccncc2)C1 (centres unmarked) [BC20280] | + (“+” >25% increase in NMNAT2 luciferase activity at >25 μM.) |
| Cc1cccc(CNC(=O)C2CCc3c(c4ccccc4n3Cc3ccncc3)C2)c1 (centres unmarked) [BC20281] | + (“+” >25% increase in NMNAT2 luciferase activity at >25 μM.) |
| COc1ccccc1CNC(=O)C1CCc2c(c3ccccc3n2Cc2ccncc2)C1 (centres unmarked) [BC20282] | + (“+” >25% increase in NMNAT2 luciferase activity at >25 μM.) |
| COc1cccc(CNC(=O)C2CCc3c(c4ccccc4n3Cc3ccncc3)C2)c1 (centres unmarked) [BC20283] | + (“+” >25% increase in NMNAT2 luciferase activity at >25 μM.) |
| O=C(NCCc1ccccc1)C1CCc2c(c3ccccc3n2Cc2ccncc2)C1 (centres unmarked) [BC20284] | + (“+” >25% increase in NMNAT2 luciferase activity at >25 μM.) |
| Cc1ccc(CNC(=O)Cn2c3c(c4ccccc42)CC(C(=O)NCc2ccco2)CC3)o1 (centres unmarked) [BC20285] | ++ (“++” >25% increase in NMNAT2 luciferase activity at >1 μM ≤25 μM.) |
| O=C(Cn1c2c(c3ccccc31)CC(C(=O)NCc1ccco1)CC2)NCc1cccc(F)c1 (centres unmarked) [BC20286] | ++ (“++” >25% increase in NMNAT2 luciferase activity at >1 μM ≤25 μM.) |
| Cc1ccccc1CNC(=O)Cn1c2c(c3ccccc31)CC(C(=O)NCc1ccco1)CC2 (centres unmarked) [BC20287] | ++ (“++” >25% increase in NMNAT2 luciferase activity at >1 μM ≤25 μM.) |
| Cc1cccc(CNC(=O)Cn2c3c(c4ccccc42)CC(C(=O)NCc2ccco2)CC3)c1 (centres unmarked) [BC20288] | ++ (“++” >25% increase in NMNAT2 luciferase activity at >1 μM ≤25 μM.) |
| COc1ccccc1CNC(=O)Cn1c2c(c3ccccc31)CC(C(=O)NCc1ccco1)CC2 (centres unmarked) [BC20289] | + (“+” >25% increase in NMNAT2 luciferase activity at >25 μM.) |
| COc1cccc(CNC(=O)Cn2c3c(c4ccccc42)CC(C(=O)NCc2ccco2)CC3)c1 (centres unmarked) [BC20290] | + (“+” >25% increase in NMNAT2 luciferase activity at >25 μM.) |
| O=C(Cn1c2c(c3ccccc31)CC(C(=O)NCc1ccco1)CC2)NCCc1ccccc1 (centres unmarked) [BC20291] | ++ (“++” >25% increase in NMNAT2 luciferase activity at >1 μM ≤25 μM.) |
| O=C(Cn1c2c(c3ccccc31)CC(C(=O)NCc1ccco1)CC2)NCc1cccnc1 (centres unmarked) [BC20292] | ++ (“++” >25% increase in NMNAT2 luciferase activity at >1 μM ≤25 μM.) |
| COc1ccc(CN2CC(C(=O)c3cn(Cc4ccccc4F)c4ccccc34)CC2=O)c(OC)c1 (centres unmarked) [BC20304] | + (“+” >25% increase in NMNAT2 luciferase activity at >25 μM.) |
| COC(=O)c1ccc2c(c1)c(C)c(C)n2Cc1ccccc1C [BC20305] | + (“+” >25% increase in NMNAT2 luciferase activity at >25 μM.) |
| Cc1ccccc1Cn1c(C)c(C)c2cc(C(=O)O)ccc21 [BC20306] | + (“+” >25% increase in NMNAT2 luciferase activity at >25 μM.) |
| Cc1c(C)n(Cc2ccccc2)c2ccc(C(=O)N3CCc4occc4C3)cc12 [BC20307] | + (“+” >25% increase in NMNAT2 luciferase activity at >25 μM.) |
| O=C(NCc1ccco1)N1CCc2c(c3ccccc3n2Cc2cccc(F)c2)C1 [BC20308] | ++ (“++” >25% increase in NMNAT2 luciferase activity at >1 μM ≤25 μM.) |
| O=C(NCc1cccc(F)c1)N1CCc2c(c3ccccc3n2Cc2cccc(F)c2)C1 [BC20309] | + (“+” >25% increase in NMNAT2 luciferase activity at >25 μM.) |
| COc1cccc(CNC(=O)N2CCc3c(c4ccccc4n3Cc3cccc(F)c3)C2)c1 [BC20310] | + (“+” >25% increase in NMNAT2 luciferase activity at >25 μM.) |
| O=C(NCCc1ccccc1)N1CCc2c(c3ccccc3n2Cc2cccc(F)c2)C1 [BC20311] | + (“+” >25% increase in NMNAT2 luciferase activity at >25 μM.) |
| Cc1cccc(NC(=O)N2CCc3c(c4ccccc4n3Cc3cccc(F)c3)C2)c1C [BC20312] | + (“+” >25% increase in NMNAT2 luciferase activity at >25 μM.) |
